# Laboratory results reported in US20140287074A1, “Extracts of deschampsia antartica with antineoplastic activity” (Uxmal S.A., Chile, priority 2013, published 2014).
# Tested on: LoVo colorectal cancer cells
# Assay: In vitro growth (proliferation, viability) of LoVo colon cancer cells
# Type: cell-based, human
# Procedure: FIG. 4. Effects of fractions of Deschampsia antarctica in concentrations of 100 μg/ml on in vitro growth of colon cancer cells (HT29 and LoVo), hepatic cancer cells (Hep3B) and control cells (wi38). GCB1, GCB2 and GCB3 correspond to extraction of three different collections of Deschampsia antarctica plants for the Antarctic. The extracts were prepared with water, then dried and dissolved in methanol. Control contains no extract added and the methanol control is a control containing 5% methanol as was used to dissolve the dried aqueous extract.
# FIG. 5. Effects of ethyl acetate (a and B) and methanol (c and d) extracts at to concentration of 75 ug/ml on LoVo colorectal cancer cells (a and c) and we38 human fetal fibroblast cells (b and d).
# Its effect on WI38 (normal lung fibroblasts) was tested at the maximum concentration to determine specificity and toxicity.
# The same extract was tested in WI 38 cells (normal lung fibroblasts).
compound,measurement,setting,value
"O=c1cc(-c2ccc(O)c(O)c2)oc2c([C@@H]3OC(CO)[C@@H](O)[C@H](O)C3O[C@H]3OC[C@H](O)[C@@H](O)C3O)c(O)cc(O)c12 (single isomer, unassigned; peak 2) [peak 2, orientin 2″-beta-arabinopyranoside]",concentration at which inhibitory effect on cellular proliferation was observed,corresponds to 1.7 mM,1000 µg/mL
same,concentration at which inhibitory effect on cellular proliferation was observed,"tested at 0.017, 0.17 and 1.7 mM, FIG. 6",1.7 mM
